Measurements: PMC8615111, “Phenolic Thiazoles with Antioxidant and Antiradical Activity. Synthesis, In Vitro Evaluation, Toxicity, Electrochemical Behavior, Quantum Studies and Antimicrobial Screening” (Antioxidants, 2021)
Where two headings read alike, the source gives them in different places.

What was measured:
[1] = test system: C. albicans ATCC 102310; assay: Antifungal activity, modified microdilution; assay type: cell-based; details: Candida albicans, ATCC102310; C. albicans ATCC 102310; read-out: MIC
Procedure: For evaluating the antimicrobial activity of the compounds, […] aerobic microbial strains were used: S. aureus ATCC 25923, S. pyogenes ATCC 19615, P. aeruginosa ATCC 27853, S. enterica ISM 83/37, S. typhimurium ATCC 14028, E. coli ATCC 8739, E. coli ATCC 25922, and C. albicans ATCC 102310 obtained from Food Biotechnology Laboratory, Life Sciences Institute, University of Agricultural Sciences, and Veterinary Medicine Cluj Napoca, where the experiment was performed. The antimicrobial activity of the compounds was determined using a modified microdilution technique, and the followed protocol was previously reported.
The antimicrobial activity of the final compounds, against seven aerobic microbial strains (S. aureus ATCC 25923, S. pyogenes ATCC 19615, P. aeruginosa ATCC 27853, S. enterica ISM 83/37, S. typhimurium ATCC 14028, E. coli ATCC 8739, E. coli ATCC 25922), and a fungal strain (C. albicans ATCC 102310), was determined using a modified microdilution technique.
The results of the antimicrobial activity evaluation of the compounds, in comparison to norfloxacin and chloramphenicol used as standard antibiotics and fluconazole used as reference antifungal, are depicted in Table 10.

[2] = DPPH˙ radical scavenging by cyclic voltammetry
Procedure: (§1) The antioxidant properties were evaluated in terms of their activity against some free radicals, and other compounds reported in the literature, relevant for this purpose, such as: • ferric ions (Fe^3+)—used to test the reduction of the antioxidant character of the compounds; • DPPH˙ free radical– used to test the scavenging effect of the compounds on this radical; • hydrogen peroxide (H2O2)—used to test the scavenging effect of the synthesized molecules on this compound; • 2,2,6,6-tetramethylpiperidinyl-1-oxy (TEMPO)—used to test the scavenging effect of the synthesized molecules on this compound.
The radical scavenging properties of the novel compounds and the other antioxidants were determined using a stock DPPH˙ radical solution prepared in absolute ethanol. The antioxidant samples were mixed with DPPH˙ solution and HClO4 electrolyte and incubated in the dark for 30 min. The remaining redox activity of DPPH was measured by cycling the potential between −0.7 V and 1.2 V, with a scan rate of 0.1 V/s.
The nitrogen-centered 2-2-diphenyl-1-picrylhydrazyl radical (DPPH˙) based assay is one of the most commonly employed method to evaluate the ability of a compound to scavenge or neutralize free radicals based on the reduction of the radical.
Taking into account the redox activity of DPPH˙, its diminution by an antioxidant can also be followed by CV, which is expected to show changes in the voltammetric peaks. Figure A5 reports the electrochemical study of initial electrooxidation of DPPH˙ and the novel compounds compared to remaining peaks after their incubation for 30 min. The decrease of all the peaks after mixture incubation indicates the partial consumption of DPPH˙.

[3] = TEMPO scavenging by differential pulse voltammetry; details: 2 mM TEMPO, one hour incubation, 0.1 M HClO4, DPV
Procedure: as §1
TEMPO (2,2,6,6-tetramethylpiperidine-N-oxyl) is a stable organic nitroxide radical that has been reported to scavenge carbon-centered radicals.
Differential pulse voltammetry (DPV) was then applied in order to evaluate the antioxidant effectiveness of the novel compounds through their ability to scavenge the free radical species.

[4] = test system: HaCaT cells; assay: Cytotoxicity determination, MTT method; assay type: cell-based; details: Homo sapiens, HaCaT cells, MTT, 24 h
Procedure: To determine the cytotoxic action of the obtained compounds 5[…], and 8a-b, a normal human keratinocytes cell line was used (HaCaT keratinocytes, CLS-300493, Eppelheim, Germany). HaCaT cells were cultured in Dulbecco's Modified Eagle Media (DMEM) supplemented with 1% L-glutamine, 1% penicillin-streptomycin, and 5% fetal bovine serum. At 80% confluence, the cells were transferred to 96 well plates at a confluence of 12×10^3 cells/well and left to attach for 24 h at 37°C and 5% CO2 in a humidified atmosphere. […] After 24 h, the culture media was replaced with 100 μL of MTT solution at a final concentration of 5 μg/mL/well and left to interact with the cells for 2 h in the incubator. After this, the MTT solution was replaced with 100 μL of isopropanol, left to dissolve the formazan crystals for 5 min, and read at 550 and 630 nm using a BioTek Epoch plate reader (BioTek Instruments, Winooski, VT, USA) and Gen5 software (version 1.09).

[5] = DPPH˙ radical scavenging assay; assay type: biochemical; details: for IC50: DPPH˙ scavenging
Procedure: The 2,2-diphenyl-1-picrylhydrazyl (DPPH˙) radical scavenging assay is based on the transfer of one hydrogen from the analyzed compound to the violet radical DPPH˙. This will convert it to a yellow compound, the change in absorbance being proportional to the amount of DPPH˙ neutralized, according to Brand-Williams et al..
The preparation of the DPPH˙ reagent was previously reported by our group. […] Over the previous quantities, DMSO was added until a total volume of 50 µL was obtained in all cuvettes, and 1950 µL of DPPH˙ solution was added to all cuvettes; then, they were shaken for well over 10 min in the dark at room temperature. The absorbances of the solutions were measured at λ = 517 nm. The DPPH˙ radical scavenging activity of evaluated compounds was calculated using Equation (2):(2) DPPH scavenging (%)=control absorbance−sample absorbance/control absorbance×100

[6] = compound + DPPH, 30 min, 3rd Eox column
[7] = compound + DPPH, 30 min, 3rd Iox column
[8] = compound + DPPH, after 30 min of reaction, 1st Eox column
[9] = compound + DPPH, after 30 min of reaction, 1st Iox column
[10] = compound alone 0.5 mM in 0.1 M HClO4, 1st Eox column
[11] = compound alone 0.5 mM in 0.1 M HClO4, 1st Iox column
[12] = compound alone, 2nd Ered column

C/C(=N\Nc1nc(-c2ccc(O)c(O)c2)cs1)c1ccc(O)cc1O.Cl [Compound 8a, (E)-2-(1-(2,4-dihydroxyphenyl)ethylidene)-1-(4-(3,4-dihydroxyphenyl)thiazol-2-yl)hydrazin-1-ium chloride]
MIC [1]: > 100 mg/L
Iox (μA) ([2]; compound + DPPH, 30 min): 11.18 μA
Eox (V) ([2]; compound + DPPH, 30 min, 2nd Eox): 0.311 V
Eox (V) [2, 6]: 0.455 V
Iox (μA) [2, 7]: 20.68 μA
Eox (V) ([2]; compound + DPPH, 30 min, 4th Eox column): 0.908 V
Iox (μA) ([2]; compound + DPPH, 30 min, 4th Iox column): 6.39 μA
Eox (V) [2, 8]: 0.188 V
Iox (μA) [2, 9]: 11.53 μA
Iox (μA) ([2]; compound alone): 6.97 μA
Eox (V) [2, 10]: 0.193 V
Iox (μA) [2, 11]: 3.56 μA
Eox (V) ([2]; compound alone, 2nd Eox): 0.325 V
Ered (V) [2, 12]: 0.278 V
Ired (μA) ([2]; compound alone, 2nd Ired): −18.04 μA
Eox (V) ([2]; compound alone, 3rd Eox column): 0.459 V
Iox (μA) ([2]; compound alone, 3rd Iox column): 22.39 μA
Eox (V) ([2]; compound alone, 4th Eox column): 0.935 V
Iox (μA) ([2]; compound alone, 4th Iox column): 6.88 μA
oxidation signal for TEMPO after incubation with the compound [3]: both the signal shift to higher oxidation potentials and its decrease
IC50 ([4]; read-out: IC50): 113 µM
IC50 ([4]; read-out: IC50 (µg/mL)): 44.6 µg/mL
% of DPPH˙ Scavenged ([5]; 1 µg/mL): 25.05%
% of DPPH˙ Scavenged ([5]; 1.5 µg/mL): 31.43%
% of DPPH˙ Scavenged ([5]; 2 µg/mL): 36.02%
% of DPPH˙ Scavenged ([5]; 3 µg/mL): 47.13%
% of DPPH˙ Scavenged ([5]; 5 µg/mL): 68.90%
IC50 [5]: 3.26 mg/L

Cl.Oc1ccc(/C=N/Nc2nc(-c3ccc(O)c(O)c3)cs2)c(O)c1 [Compound 8b, (E)-2-(2,4-dihydroxybenzylidene)-1-(4-(3,4-dihydroxyphenyl)thiazol-2-yl)hydrazin-1-ium chloride]
MIC [1]: > 100 mg/L
Ered (V) ([2]; compound + DPPH, 30 min, 1st Ered): 0.259 V
Ired (μA) ([2]; compound + DPPH, 30 min, 1st Ired): −14.96 μA
Eox (V) [2, 6]: 0.457 V
Iox (μA) [2, 7]: 18.63 μA
Eox (V) [2, 8]: 0.247 V
Iox (μA) [2, 9]: 17.56 μA
Eox (V) [2, 10]: 0.259 V
Iox (μA) [2, 11]: 10.92 μA
Ered (V) [2, 12]: 0.127 V
Ired (μA) ([2]; compound alone, 2nd Ired): −3.52 μA
Eox (V) ([2]; compound alone, 3rd Eox column): 0.47 V
Iox (μA) ([2]; compound alone, 3rd Iox column): 29.61 μA
oxidation signal for TEMPO after incubation with the compound [3]: both the signal shift to higher oxidation potentials and its decrease
IC50 ([4]; read-out: IC50): 22.5 µM
IC50 ([4]; read-out: IC50 (µg/mL)): 8.54 µg/mL
% of DPPH˙ Scavenged ([5]; 1 µg/mL): 39.38%
% of DPPH˙ Scavenged ([5]; 1.5 µg/mL): 47.41%
% of DPPH˙ Scavenged ([5]; 2 µg/mL): 54.37%
% of DPPH˙ Scavenged ([5]; 3 µg/mL): 67.84%
% of DPPH˙ Scavenged ([5]; 5 µg/mL): 91.38%
IC50 [5]: 1.72 mg/L
